Where only a bound is given, the exact number is not on record here.

For test [1], the target named is T1, CDK12 (nuclear staining in CAL-120 cells) (Homo sapiens, UniProt Q9NYV4).
T1 construct: endogenous in cells; host or cells: CAL-120 human breast cancer cells (DSMZ ACC 459)
The test can be described thus: CDK12 nuclear protein level: immunofluorescence/high content analysis (CAL-120). The test is classed as cell-based. To be noted: for DC50: CAL-120 cells, 24 h, immunofluorescence, 50% reduction of nuclear CDK12 staining intensity, median, read-out: CDK12 degradation IF, DC50- [mol/l] (median); for (IC50 CDK12 high ATP) to (Degradation DC50 CDK12) ratio: ratio of IC50 CDK12 high ATP kinase assay to DC50 CDK12 degradation (IF, CAL-120). In short, it runs like this:
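CAL-120 cells were treated with compound for 24 h at 37 °C, fixed with PFA and immunostained for CDK12. Nuclear CDK12 intensity was quantified by automated image analysis and normalized to DMSO and control. DC50 is the concentration giving 50% reduction of nuclear staining.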

The next test concerns the target T2, CDK9/CycT1 (Homo sapiens, UniProt P50750).
T2 construct: Recombinant full-length His-tagged human CDK9 and CycT1; purchased Life Technologies PV4131; host or cells: insect cells
Briefly: CDK9/CycT1 high ATP kinase assay (TR-FRET, 2 mM ATP). The test is classed as biochemical. The conditions noted are these: 2 mM ATP (high ATP); median; read-out: CDK9/CyclinT1, 2 mM ATP (high ATP), IC50 (median). In short, it runs like this: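 Full-length His-tagged human CDK9/CycT1 (insect cell, ~0.5 μg/mL) preincubated 15 min at 22 °C with compound in Tris pH 8.0, MgCl2, DTT buffer before reaction with biotinylated peptide substrate at high ATP (2 mM).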
For orientation: In TR-FRET formats the signal depends on donor and acceptor labels being close together.

Test [2] relates to MDA-MB-231, human breast cancer cells. The test can be described thus: Proliferation assay MDA-MB-231 (crystal violet, 4 days). To be noted: Homo sapiens, MDA-MB-231, 96 h, MDA-MB-231 cells, median, read-out: Prolif-MDA MB-231, IC50-[mol/l] (median). It counts as cell-based. In short, it runs like this: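 Following a 24 h attachment in 10% fetal calf serum medium, cells receive test substance over 0.01-10 µmol/L for 4 days. Dye retained by fixed cells is eluted and read at 595 nm; cell number change is referenced to day-0 and untreated wells.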

Test [3] concerns the target T3, CYCLIN K (nuclear staining in CAL-120 cells) (Homo sapiens, UniProt O75909).
T3 construct: endogenous in cells; host or cells: CAL-120 human breast cancer cells (DSMZ ACC 459)
The test can be described thus: CYCLIN K nuclear protein level: immunofluorescence high content analysis (CAL-120). To be noted: 24 h, 50% reduction of nuclear CCNK staining intensity, median, read-out: CYCLIN K degradation IF, DC50-[mol/l] (median). The test is classed as cell-based. In short, it runs like this: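 CAL-120 breast cancer cells treated in dose-response for 24 h at 37 °C, PFA-fixed and immunostained for cyclin K with Hoechst counterstain. Confocal imaging quantified nuclear intensity; DC50 is the concentration giving 50% reduction of nuclear CCNK staining, normalized to DMSO and control.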

T2 sequence (P50750 whole entry): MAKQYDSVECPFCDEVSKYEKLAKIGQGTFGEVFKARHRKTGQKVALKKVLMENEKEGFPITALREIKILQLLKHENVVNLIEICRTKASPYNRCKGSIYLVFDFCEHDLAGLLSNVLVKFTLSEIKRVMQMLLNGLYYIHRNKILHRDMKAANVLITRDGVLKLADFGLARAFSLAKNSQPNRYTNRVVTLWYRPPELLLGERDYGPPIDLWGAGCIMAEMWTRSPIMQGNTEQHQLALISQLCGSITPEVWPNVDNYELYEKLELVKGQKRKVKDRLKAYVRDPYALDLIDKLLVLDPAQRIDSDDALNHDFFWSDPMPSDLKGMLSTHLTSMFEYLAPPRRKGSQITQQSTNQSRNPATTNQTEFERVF
T2 sequence (O60563 whole entry partner): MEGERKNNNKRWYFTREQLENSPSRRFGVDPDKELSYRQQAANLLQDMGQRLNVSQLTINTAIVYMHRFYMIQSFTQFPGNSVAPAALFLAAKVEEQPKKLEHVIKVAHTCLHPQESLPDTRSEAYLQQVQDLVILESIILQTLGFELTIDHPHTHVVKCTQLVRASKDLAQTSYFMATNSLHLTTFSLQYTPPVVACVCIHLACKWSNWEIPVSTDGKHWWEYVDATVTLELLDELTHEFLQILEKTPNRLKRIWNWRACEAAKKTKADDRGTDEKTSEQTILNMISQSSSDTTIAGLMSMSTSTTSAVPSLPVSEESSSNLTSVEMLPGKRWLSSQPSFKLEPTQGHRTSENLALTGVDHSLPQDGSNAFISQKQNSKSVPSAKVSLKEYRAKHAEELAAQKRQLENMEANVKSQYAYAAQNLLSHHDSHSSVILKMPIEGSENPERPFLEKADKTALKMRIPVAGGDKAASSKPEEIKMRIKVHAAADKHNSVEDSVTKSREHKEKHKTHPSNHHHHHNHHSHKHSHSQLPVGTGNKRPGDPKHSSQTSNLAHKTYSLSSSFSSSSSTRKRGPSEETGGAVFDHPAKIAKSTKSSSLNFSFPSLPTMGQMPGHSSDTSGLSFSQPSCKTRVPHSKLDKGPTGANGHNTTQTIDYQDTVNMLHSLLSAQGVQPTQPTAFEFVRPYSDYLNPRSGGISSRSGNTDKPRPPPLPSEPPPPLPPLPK
T3 sequence (O75909 whole entry): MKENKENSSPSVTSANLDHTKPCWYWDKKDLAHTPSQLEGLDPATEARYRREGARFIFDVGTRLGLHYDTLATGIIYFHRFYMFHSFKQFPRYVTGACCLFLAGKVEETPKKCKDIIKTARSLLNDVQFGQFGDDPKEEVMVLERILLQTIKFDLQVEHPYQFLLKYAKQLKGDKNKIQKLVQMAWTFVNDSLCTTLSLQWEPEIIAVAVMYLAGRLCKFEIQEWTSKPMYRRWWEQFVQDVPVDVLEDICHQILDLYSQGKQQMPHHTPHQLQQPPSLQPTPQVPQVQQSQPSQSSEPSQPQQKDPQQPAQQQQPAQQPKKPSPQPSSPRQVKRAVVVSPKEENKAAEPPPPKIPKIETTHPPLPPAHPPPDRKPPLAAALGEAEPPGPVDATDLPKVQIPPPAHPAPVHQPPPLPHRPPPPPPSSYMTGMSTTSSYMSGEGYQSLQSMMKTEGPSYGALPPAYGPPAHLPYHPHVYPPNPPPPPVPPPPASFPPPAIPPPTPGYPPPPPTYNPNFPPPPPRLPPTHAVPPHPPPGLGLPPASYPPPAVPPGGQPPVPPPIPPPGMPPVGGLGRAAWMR
T3 sequence (Q9NYV4 whole entry partner): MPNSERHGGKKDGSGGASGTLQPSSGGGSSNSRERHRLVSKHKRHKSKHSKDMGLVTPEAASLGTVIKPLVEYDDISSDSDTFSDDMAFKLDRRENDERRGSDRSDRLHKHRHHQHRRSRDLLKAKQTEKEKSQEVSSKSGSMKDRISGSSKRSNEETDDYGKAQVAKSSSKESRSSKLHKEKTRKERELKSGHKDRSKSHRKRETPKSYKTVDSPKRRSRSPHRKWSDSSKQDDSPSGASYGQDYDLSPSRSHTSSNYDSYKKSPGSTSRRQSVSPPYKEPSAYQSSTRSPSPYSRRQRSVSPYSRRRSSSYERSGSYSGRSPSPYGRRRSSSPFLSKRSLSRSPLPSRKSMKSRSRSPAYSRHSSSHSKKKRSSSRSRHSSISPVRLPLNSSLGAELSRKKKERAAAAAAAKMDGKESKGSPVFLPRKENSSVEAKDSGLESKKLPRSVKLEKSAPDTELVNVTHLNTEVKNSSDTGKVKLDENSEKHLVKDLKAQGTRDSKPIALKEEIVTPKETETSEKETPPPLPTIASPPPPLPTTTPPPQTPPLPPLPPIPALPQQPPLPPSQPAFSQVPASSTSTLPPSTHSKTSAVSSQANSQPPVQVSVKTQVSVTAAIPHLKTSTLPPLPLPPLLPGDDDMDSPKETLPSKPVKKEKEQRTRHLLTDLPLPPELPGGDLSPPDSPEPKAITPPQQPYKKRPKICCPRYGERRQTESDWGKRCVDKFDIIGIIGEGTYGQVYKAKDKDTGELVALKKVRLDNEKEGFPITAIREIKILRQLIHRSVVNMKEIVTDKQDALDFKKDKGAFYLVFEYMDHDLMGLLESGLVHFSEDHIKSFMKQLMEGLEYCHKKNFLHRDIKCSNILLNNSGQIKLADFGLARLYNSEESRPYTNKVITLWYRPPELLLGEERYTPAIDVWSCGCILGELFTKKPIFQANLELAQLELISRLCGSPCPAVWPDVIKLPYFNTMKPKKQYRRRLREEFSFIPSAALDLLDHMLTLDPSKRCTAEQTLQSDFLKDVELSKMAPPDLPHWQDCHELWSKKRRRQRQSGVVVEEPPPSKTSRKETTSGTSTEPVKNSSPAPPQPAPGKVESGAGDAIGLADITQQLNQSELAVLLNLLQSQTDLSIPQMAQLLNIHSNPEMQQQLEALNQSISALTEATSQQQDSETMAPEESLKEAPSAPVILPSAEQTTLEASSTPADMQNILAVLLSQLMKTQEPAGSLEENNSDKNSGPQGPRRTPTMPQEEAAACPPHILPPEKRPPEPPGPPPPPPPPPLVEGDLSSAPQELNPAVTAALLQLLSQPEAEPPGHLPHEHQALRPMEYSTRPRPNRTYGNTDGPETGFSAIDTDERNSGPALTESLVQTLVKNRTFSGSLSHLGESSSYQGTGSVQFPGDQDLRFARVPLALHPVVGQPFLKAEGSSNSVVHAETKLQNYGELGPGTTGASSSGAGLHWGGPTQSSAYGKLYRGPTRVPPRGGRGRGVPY
T1 sequence (Q9NYV4 whole entry): as the sequence (Q9NYV4 whole entry partner) above
T1 sequence (O75909 whole entry partner): as the sequence (O75909 whole entry) above

Take `CN(CC(C)(C)O)c1nc(NCc2nc3cc(C(F)(F)F)ccc3[nH]2)n2ncc(Br)c2n1` [Example 345, 1-{[8-bromo-4-({[5-(trifluoromethyl)-1H-benzimidazol-2-yl]methyl}amino)pyrazolo[1,5-a][1,3,5]triazin-2-yl](methyl)amino}-2-methylpropan-2-ol]: the values for the DC50 in test [1] and in test [3] were 3.98 nM and 0.698 nM, respectively. The “(IC50 CDK12 high ATP) to (Degradation DC50 CDK12) ratio” value in test [1] stood at 166. Moreover, the results for the IC50 (on CDK9/CycT1; in test [2]) were 6240 nM and 3.44 nM, respectively.

As for `Cc1cc2nc(CNc3nc(N4CC5CCC(C4)N5)nc4c(C5CC5)cnn34)[nH]c2cc1C` [Example 326, 8-cyclopropyl-2-(3,8-diazabicyclo[3.2.1]octan-3-yl)-N-[(5,6-dimethyl-1H-benzimidazol-2-yl)methyl]pyrazolo[1,5-a][1,5]triazin-4-amine], the DC50 in test [1] worked out at 4.77 nM; in test [3], 0.654 nM. Further, the “(IC50 CDK12 high ATP) to (Degradation DC50 CDK12) ratio” value in test [1] worked out at 198. Also, the IC50 on CDK9/CycT1 turned out to be 17000 nM; in test [2], 1.57 nM.

For the compound `Fc1cc2nc(CNc3nc(N4CC5CCC(C4)N5)nc4c(Br)cnn34)[nH]c2cc1F` [Example 355, 8-bromo-2-(3,8-diazabicyclo[3.2.1]octan-3-yl)-N-[(5,6-difluoro-1H-benzimidazol-2-yl)methyl]pyrazolo[1,5-a][1,3,5]triazin-4-amine], the DC50 amounted to 23.5 nM in test [1] and 0.481 nM in test [3]. For the same compound, the “(IC50 CDK12 high ATP) to (Degradation DC50 CDK12) ratio” value in test [1] worked out at 178. Also, the IC50 at CDK9/CycT1 was above 20000 nM; in test [2], 3.2 nM.

With `Fc1ccc(-c2nnc(CNc3nc(N4CCOCC4)nc4c(Br)cnn34)[nH]2)cc1` [Example 29, 8-bromo-N-{[5-(4-fluorophenyl)-4H-1,2,4-triazol-3-yl]methyl}-2-(morpholin-4-yl)pyrazolo[1,5-a][1,3,5]triazin-4-amine], the DC50 in test [1] stood at 11.8 nM; in test [3], 3.36 nM. For the same compound, the “(IC50 CDK12 high ATP) to (Degradation DC50 CDK12) ratio” value in test [1] was 310. In addition, the figures for the IC50 (on CDK9/CycT1; in test [2]) were 2400 nM and 89.9 nM, respectively.

In the case of `CN1CCN(c2nc(NCc3nc4cc(F)c(Cl)cc4[nH]3)n3ncc(Br)c3n2)CC1` [Example 337, 8-bromo-N-[(6-chloro-5-fluoro-1H-benzimidazol-2-yl)methyl]-2-(4-methylpiperazin-1-yl)pyrazolo[1,5-a][1,3,5]triazin-4-amine], the results for the DC50 in test [1] and in test [3] were 1.85 nM and 0.369 nM, respectively. Also, in test [1], the “(IC50 CDK12 high ATP) to (Degradation DC50 CDK12) ratio” value worked out at 4722. Further, the figures for the IC50 (on CDK9/CycT1; in test [2]) were above 20000 nM and 2.45 nM, respectively.

On to `Fc1cc2nc(CNc3nc(N4CCOCC4)nc4c(Br)cnn34)[nH]c2cc1F` [Example 341, 8-bromo-N-[(5,6-difluoro-1H-benzimidazol-2-yl)methyl]-2-(morpholin-4-yl)pyrazolo[1,5-a][1,3,5]triazin-4-amine], for which the DC50 in test [1] came to 3.55 nM; in test [3], 0.29 nM. Besides, the “(IC50 CDK12 high ATP) to (Degradation DC50 CDK12) ratio” value in test [1] is 624. Besides, the IC50 came out at 17400 nM on CDK9/CycT1 and 3.73 nM in test [2].

On to `Clc1cc2nc(CNc3nc(N4CC5CCC(C4)N5)nc4c(Br)cnn34)[nH]c2cc1Cl` [Example 334, 8-bromo-2-(3,8-diazabicyclo[3.2.1]octan-3-yl)-N-[(5,6-dichloro-1H-benzimidazol-2-yl)methyl]pyrazolo[1,5-a][1,3,5]triazin-4-amine], for which the DC50 in test [1] is 33.5 nM; in test [3], 2.06 nM. Further, the “(IC50 CDK12 high ATP) to (Degradation DC50 CDK12) ratio” value in test [1] is on record as 60. The IC50 on CDK9/CycT1 stood at 8140 nM; in test [2] it was 2.18 nM.

`CN(CC(C)(C)O)c1nc(NCc2nc3cc(Cl)c(Cl)cc3[nH]2)n2ncc(Br)c2n1` [Example 331, 1-[(8-bromo-4-{[(5,6-dichloro-1H-benzimidazol-2-yl)methyl]amino}pyrazolo[1,5-a][1,3,5]triazin-2-yl)(methyl)amino]-2-methylpropan-2-ol]: the results for the DC50 in test [1] and in test [3] were 6 nM and 0.44 nM, respectively. Besides, the “(IC50 CDK12 high ATP) to (Degradation DC50 CDK12) ratio” value in test [1] is 58. Also, the figures for the IC50 (on CDK9/CycT1; in test [2]) were 4900 nM and 3.75 nM, respectively.

`Fc1cc2nc(CNc3nc(N4CC5CCC(C4)N5)nc4c(C5CC5)cnn34)[nH]c2cc1F` [Example 325, 8-cyclopropyl-2-(3,8-diazabicyclo[3.2.1]octan-3-yl)-N-[(5,6-difluoro-1H-benzimidazol-2-yl)methyl]pyrazolo[1,5-a][1,5]triazin-4-amine]: the DC50 in test [1] is 1.88 nM; in test [3] it was 0.53 nM. Further, the “(IC50 CDK12 high ATP) to (Degradation DC50 CDK12) ratio” value in test [1] stood at 1890. The IC50 at CDK9/CycT1 is above 20000 nM; in test [2] it was 3.22 nM.

As for `Fc1cc2nc(CNc3nc(N4CCOCC4)nc4c(C(F)(F)F)cnn34)[nH]c2cc1F` [Example 333, N-[(5,6-difluoro-1H-benzimidazol-2-yl)methyl]-2-(morpholin-4-yl)-8-(trifluoromethyl)pyrazolo[1,5-a][1,3,5]triazin-4-amine], the DC50 in test [1] came out at 2.31 nM; in test [3], 0.113 nM. Also, the “(IC50 CDK12 high ATP) to (Degradation DC50 CDK12) ratio” value in test [1] was 61. The IC50 on CDK9/CycT1 is above 20000 nM; in test [2] it was 3.78 nM.

With `CN1CCN(c2nc(NCc3nc4c(F)c(Cl)ccc4[nH]3)n3ncc(C4CC4)c3n2)CC1` [Example 371, N-[(5-chloro-4-fluoro-1H-benzimidazol-2-yl)methyl]-8-cyclopropyl-2-(4-methylpiperazin-1-yl)pyrazolo[1,5-a][1,3,5]triazin-4-amine], the DC50 was 4.16 nM in test [1] and 0.652 nM in test [3]. In addition, the “(IC50 CDK12 high ATP) to (Degradation DC50 CDK12) ratio” value in test [1] is 1263. In addition, the IC50 on CDK9/CycT1 is above 20000 nM; in test [2] it was 7.8 nM.

For `Cc1cc2nc(CNc3nc(N4CC5CCC(C4)N5)nc4c(Br)cnn34)[nH]c2cc1C` [Example 353, 8-bromo-2-(3,8-diazabicyclo[3.2.1]octan-3-yl)-N-[(5,6-dimethyl-1H-benzimidazol-2-yl)methyl]pyrazolo[1,5-a][1,3,5]triazin-4-amine], the DC50 in test [1] came out at 12.4 nM; in test [3], 0.644 nM. Further, the “(IC50 CDK12 high ATP) to (Degradation DC50 CDK12) ratio” value in test [1] was determined as 203. For the same compound, the IC50 on CDK9/CycT1 stood at 12700 nM; in test [2] it was 1.81 nM.

Consider `CN(CC(C)(C)O)c1nc(NCc2nc3c(F)c(Cl)ccc3[nH]2)n2ncc(Br)c2n1` [Example 374, 1-[(8-bromo-4-{[(5-chloro-4-fluoro-1H-benzimidazol-2-yl)methyl]amino}pyrazolo[1,5-a][1,3,5]triazin-2-yl)(methyl)amino]-2-methylpropan-2-ol], for which the DC50 in test [1] was 1.81 nM; in test [3] it was 0.345 nM. In addition, in test [1], the “(IC50 CDK12 high ATP) to (Degradation DC50 CDK12) ratio” value amounted to 85. Further, the results for the IC50 (on CDK9/CycT1; in test [2]) were 1640 nM and 3.62 nM, respectively.

Consider `Brc1cnn2c(NCc3nc4ccccc4[nH]3)nc(N3CCN4CCC3CC4)nc12` [Example 349, N-[(1H-benzimidazol-2-yl)methyl]-8-bromo-2-(1,4-diazabicyclo[3.2.2]nonan-4-yl)pyrazolo[1,5-a][1,3,5]triazin-4-amine], for which the DC50 is 9.89 nM in test [1] and 0.784 nM in test [3]. For the same compound, the “(IC50 CDK12 high ATP) to (Degradation DC50 CDK12) ratio” value in test [1] amounted to 877. In addition, the IC50 on CDK9/CycT1 was above 20000 nM; in test [2], 12.9 nM.

Source of the values: US20230117034A1, “PYRAZOLOTRIAZINES” (Bayer Aktiengesellschaft, priority 2019, published 2023).
